Key:
Estrogen receptor beta [1] = molecular target: T1, Estrogen receptor beta (Homo sapiens, UniProt Q92731); test: Displacement of [3H]estradiol from human recombinant ERbeta relative to estradiol
Estrogen receptor beta [2] = molecular target: T1, Estrogen receptor beta; test: Displacement of [3H]estradiol from human recombinant ERbeta
Estrogen receptor = molecular target: T2, Estrogen receptor (Homo sapiens, UniProt P03372)
T2 sequence (P03372 whole entry): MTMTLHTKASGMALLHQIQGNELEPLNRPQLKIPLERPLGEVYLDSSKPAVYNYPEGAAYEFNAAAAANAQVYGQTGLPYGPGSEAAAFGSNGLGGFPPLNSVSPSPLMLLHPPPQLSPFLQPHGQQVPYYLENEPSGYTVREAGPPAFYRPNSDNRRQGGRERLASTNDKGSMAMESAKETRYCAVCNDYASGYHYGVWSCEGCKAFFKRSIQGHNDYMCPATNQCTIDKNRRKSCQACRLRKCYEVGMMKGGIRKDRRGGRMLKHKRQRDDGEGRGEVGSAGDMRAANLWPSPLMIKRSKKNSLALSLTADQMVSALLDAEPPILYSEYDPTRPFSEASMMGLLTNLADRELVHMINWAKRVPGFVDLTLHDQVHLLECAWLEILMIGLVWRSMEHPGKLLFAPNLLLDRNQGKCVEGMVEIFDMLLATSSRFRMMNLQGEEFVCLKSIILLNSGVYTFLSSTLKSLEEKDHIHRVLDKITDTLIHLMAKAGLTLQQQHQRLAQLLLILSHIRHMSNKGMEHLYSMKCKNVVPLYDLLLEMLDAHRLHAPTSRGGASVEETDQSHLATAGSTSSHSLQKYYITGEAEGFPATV
Description: Displacement of [3H]estradiol from human recombinant ERalpha

Homo sapiens = species on record: Homo sapiens; test: Selectivity for human ERalpha over human ERbeta

T1 sequence (Q92731 whole entry): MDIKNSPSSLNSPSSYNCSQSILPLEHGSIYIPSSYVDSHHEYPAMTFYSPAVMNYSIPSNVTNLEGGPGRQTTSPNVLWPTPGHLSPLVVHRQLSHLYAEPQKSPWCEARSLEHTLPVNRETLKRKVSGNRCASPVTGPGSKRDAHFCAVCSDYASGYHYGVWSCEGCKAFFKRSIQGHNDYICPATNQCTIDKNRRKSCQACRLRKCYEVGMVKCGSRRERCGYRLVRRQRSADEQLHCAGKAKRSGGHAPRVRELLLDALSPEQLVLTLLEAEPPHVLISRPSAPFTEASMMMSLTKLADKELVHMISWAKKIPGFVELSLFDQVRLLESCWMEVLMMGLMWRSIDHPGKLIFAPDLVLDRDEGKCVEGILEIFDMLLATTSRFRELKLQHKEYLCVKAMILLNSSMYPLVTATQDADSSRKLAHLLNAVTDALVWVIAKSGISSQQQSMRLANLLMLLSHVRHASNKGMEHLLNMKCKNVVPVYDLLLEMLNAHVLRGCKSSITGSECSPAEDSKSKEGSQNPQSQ

Nc1ccc(-c2sc3cc(O)ccc3c2Oc2ccc(OCCN3CCCCC3)cc2)cc1
relative binding affinity (RBA) (Estrogen receptor beta [1]): 0.34 | IC50 (Estrogen receptor beta [2]): 48.6 nM | IC50 (Estrogen receptor): 19.3 nM | Ratio (Homo sapiens): 2.8

Oc1ccc2c(Oc3ccc(OCCN4CCCCC4)cc3)c(-c3ccc(F)cc3)sc2c1
relative binding affinity (RBA) (Estrogen receptor beta [1]): 0.68 | IC50 (Estrogen receptor beta [2]): 27.9 nM | IC50 (Estrogen receptor): 17.2 nM | Ratio (Homo sapiens): 1.6

COc1ccc(-c2sc3cc(O)ccc3c2Oc2ccc(OCCN3CCCCC3)cc2)cc1
relative binding affinity (RBA) (Estrogen receptor beta [1]): 0.25

Oc1ccc2c(Oc3ccc(OCCN4CCCCC4)cc3)c(-c3ccc(NCCCl)cc3)sc2c1
relative binding affinity (RBA) (Estrogen receptor beta [1]): < 0.01 | IC50 (Estrogen receptor beta [2]): > 1600 nM | IC50 (Estrogen receptor): 35.6 nM | Ratio (Homo sapiens): > 50

O=C(CCl)Nc1ccc(-c2sc3cc(O)ccc3c2Oc2ccc(OCCN3CCCCC3)cc2)cc1
relative binding affinity (RBA) (Estrogen receptor beta [1]): 0.007 | IC50 (Estrogen receptor beta [2]): 2360 nM | IC50 (Estrogen receptor): 666 nM | Ratio (Homo sapiens): 4.3

Oc1ccc(-c2sc3cc(O)ccc3c2Oc2ccc(OCCN3CCCCC3)cc2)cc1
relative binding affinity (RBA) (Estrogen receptor beta [1]): 1.77 | IC50 (Estrogen receptor beta [2]): 9.6 nM

CS(=O)(=O)c1ccc(-c2sc3cc(O)ccc3c2Oc2ccc(OCCN3CCCCC3)cc2)cc1
relative binding affinity (RBA) (Estrogen receptor beta [1]): 0.009 | IC50 (Estrogen receptor beta [2]): 1800 nM | IC50 (Estrogen receptor): 27 nM | Ratio (Homo sapiens): 79

Oc1ccc2c(Oc3ccc(OCCN4CCCCC4)cc3)c(-c3ccc(Br)cc3)sc2c1
relative binding affinity (RBA) (Estrogen receptor beta [1]): 0.25 | IC50 (Estrogen receptor beta [2]): 66.7 nM | IC50 (Estrogen receptor): 27 nM | Ratio (Homo sapiens): 2.8

Oc1ccc2c(Oc3ccc(OCCN4CCCCC4)cc3)c(-c3ccccc3)sc2c1
relative binding affinity (RBA) (Estrogen receptor beta [1]): 1 | IC50 (Estrogen receptor beta [2]): 16.3 nM | IC50 (Estrogen receptor): 10.9 nM | Ratio (Homo sapiens): 1.7

From ChEMBL document CHEMBL1143673, “Benzothiophene selective estrogen receptor modulators with modulated oxidative activity and receptor affinity” (J Med Chem, 2007)
